The results in this text go back to patent publication EP0039646A1, “1,4-Benzodioxines, processes for their preparation and their use in therapy” (RIOM LABORATOIRES- C.E.R.M. (Société Anonyme), priority 1980, dated 1981).

The test system of data set [1] is rat spontanément hypertendu anesthésié. As to the kind of experiment: Antihypertensive effect in anaesthetised spontaneously hypertensive rats, carotid arterial pressure after i.v. injection. In kind it is in vivo. As to the method:
Les essais in vivo ont été effectués chez des rats mâles (S.H.R. - I.F.F.A.) conformément au protocole résumé ci-après :
Après anesthésie au pentobarbital, on a disposé un cathéter au niveau de l'artère carotide pour enregistrer la pression artérielle, et un cathéter au niveau d'une veine jugulaire pour permettre les injections des composés de l'invention mis en solution dans 0,5 ml de PEG 200 (polyéthylène glycol). La durée de l'injection était de 1 minute.

Data set [2] has as its target T1, récepteurs β2 (Cavia porcellus, UniProt Q8K4Z4).
T1 construct: sur les récepteurs β2 du muscle trachéal de cobaye; from tissue; host or cells: guinea pig tracheal muscle
Kind of data set: Antagonism of the bronchodilator effects of isoprenaline on guinea pig tracheal muscle. Set-up: species or system cobaye. An excerpt: (§1) L'activité pharmacologique des composés de l'invention a été révélée par recherche d'une interférence avec les récepteurs adrénergiques β1, β2 et α in vitro, et confirmée in vivo par les effets antihypertenseurs observés après administration desdits composés chez le rat spontanément hypertendu anesthésié.
(§2) Les essais effectués in vitro correspondent aux protocoles résumés ci-après : • - Récepteurs adrénergiques β1 : on recherche l'antagonisme de l'effet inotrope positif de l'isopré- naline sur les récepteurs β1 de l'oreillette gauche de cobaye stimulée électriquement. • - Récepteurs adrénergiques 6 2 : on recherche l'antagonisme des effets bronchodilatateurs de l'iso- prénaline sur les récepteurs β2 du muscle trachéal de cobaye. • - Récepteurs adrénergiques α : on étudie l'interférence des composés de l'invention sur la contraction du vas déferens isolé du rat, provoquée par des doses cumulatives de noradrénaline.
(§3) Les résultats exprimés par les paramètres usuels de pharmacologie moléculaire, selon les critères utilisés par Van Rossum [Arch. Int.

Data set [3] concerns Récepteurs adrénergiques α. As to the kind of experiment: Interference with the contraction of isolated rat vas deferens caused by cumulative doses of noradrenaline.
Description: as §1, §2, §3

Data set [4] in a line: Acute oral toxicity in mice. The conditions noted are these: mouse, in vivo, voie orale, souris, read-out: toxicité aiguë. As to the method: Ces résultats montrent en particulier le grand intérêt du composé n° 2 qui présente un antagonisme très sélectif du type dualiste vis-à-vis des récepteurs β adrénergiques et fait preuve d'une remarquable activité in vivo chez le rat spontanément hypertendu anesthésié. Il a d'autre part été possible d'évaluer à 120 mg.kg-^1 la toxicité aiguë du composé n° 2 par voie orale chez la souris.

The target of data set [5] is T2, récepteurs β1 (Cavia porcellus, UniProt H0W3H1).
T2 construct: sur les récepteurs β1 de l'oreillette gauche de cobaye stimulée électriquement; from tissue; host or cells: isolated guinea pig left atrium, electrically stimulated
T2 sequence (H0W3H1 1-470): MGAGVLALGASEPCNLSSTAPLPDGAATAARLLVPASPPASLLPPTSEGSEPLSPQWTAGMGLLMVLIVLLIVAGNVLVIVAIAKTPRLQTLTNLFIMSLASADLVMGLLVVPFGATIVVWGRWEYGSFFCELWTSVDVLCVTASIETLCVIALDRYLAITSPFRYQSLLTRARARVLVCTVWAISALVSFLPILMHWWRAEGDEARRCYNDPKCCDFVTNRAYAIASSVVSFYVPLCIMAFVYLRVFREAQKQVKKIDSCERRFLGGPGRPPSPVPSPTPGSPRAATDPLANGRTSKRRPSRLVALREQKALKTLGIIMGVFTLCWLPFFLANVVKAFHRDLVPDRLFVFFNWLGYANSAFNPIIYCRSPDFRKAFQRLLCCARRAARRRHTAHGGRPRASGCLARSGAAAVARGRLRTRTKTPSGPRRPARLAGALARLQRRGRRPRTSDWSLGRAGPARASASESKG
Kind of data set: Antagonism of the positive inotropic effect of isoprenaline on electrically stimulated guinea pig left atrium. Set-up: species or system cobaye.
Description: as §1, §2, §3

T1 sequence (Q8K4Z4 whole entry): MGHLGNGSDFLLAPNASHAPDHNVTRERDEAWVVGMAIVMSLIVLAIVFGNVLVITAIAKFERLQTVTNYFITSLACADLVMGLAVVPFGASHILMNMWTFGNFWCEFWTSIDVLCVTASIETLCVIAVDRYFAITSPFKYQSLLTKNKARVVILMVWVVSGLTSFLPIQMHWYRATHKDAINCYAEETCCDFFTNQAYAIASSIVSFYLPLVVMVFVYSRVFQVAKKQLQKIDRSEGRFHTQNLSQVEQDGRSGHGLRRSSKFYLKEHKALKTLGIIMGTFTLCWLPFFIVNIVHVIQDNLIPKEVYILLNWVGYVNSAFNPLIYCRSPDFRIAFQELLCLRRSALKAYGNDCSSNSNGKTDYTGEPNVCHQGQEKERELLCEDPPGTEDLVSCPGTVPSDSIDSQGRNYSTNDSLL

As for `COc1ccccc1N1CCN(CC(O)C2=COc3ccccc3O2)CC1` (stereo not shown) [exemple 2, 2-méthanolα-[4-(2-methoxyphenyl)piperazinyl-1] methyl benzo (1,4) dioxine], the “durée de l'effet antihypertenseur” value in data set [1] (dose 2,5 mg.kg^-1, jugular vein injection in PEG 200, male SHR rats under pentobarbital) was above 45 min. In addition, the “Récepteurs β2” value in data set [2] is “inactif”. The “potentialisation des effets de la noradrénaline” value in data set [3] (dose 10^-4 M/1) is on record as 180%. Further, the LD50 in data set [4] came to 120 mg/kg. Besides, in data set [5] (Récepteurs β1, guinea pig left atrium, isoprenaline, Van Rossum criteria), the “pD'2” value was 4,84. The Kb in data set [5] (Récepteurs β1, guinea pig left atrium, isoprenaline, Van Rossum criteria, read-out: pA2 (converted)) was 912 nM.

Consider `OC(CN1CCN(c2cccc(C(F)(F)F)c2)CC1)C1=COc2ccccc2O1` (stereo not shown) [exemple 1, 2-méthanoloα-[4-(3-trifluoromethylphenyl)piperazinyl-1] methyl benzo (1,4) dioxine], for which the “durée de l'effet antihypertenseur” value in data set [1] (dose 20 mg.kg^-1, jugular vein injection in PEG 200, male SHR rats under pentobarbital) was found to be 20 min. For the same compound, the “Récepteurs β2” value in data set [2] was “inactif”. In addition, the “Récepteurs α” value in data set [3] (noradrenaline) was “inactif”. Besides, in data set [5] (10^-4 M/1), the “action sur les récepteurs β1” value is “très faiblement compétitive”.
